System: Plasmodium berghei
Assay: Luciferase/luciferin-expressing antifolate-resistant parasites were used to infect a culture of HepG2 cells that were pre-incubated with compounds. Infected hepatocytes emit light due to the luciferase reaction. Assay results are presented as the percent inhibition of light emission compared to control. […]
Assay type: functional
Conditions: sporozoite; for IC90: read-out: LUCIFERASE INFECTION ASSAY - IC90
[1] = FFLUC_HILL_SLOPE 11.2, FFLUC_R_SQUARED 0.126, read-out: LUCIFERASE INFECTION ASSAY - IC50

| Structure (SMILES) | IC90 [µM] | also measured |
| --- | --- | --- |
| CCn1cc(C(=O)N[C@@H](C)C(=O)OC)c(=O)c2cc3c(cc21)OCO3 | > 9.53 | IC50 (FFLUC_HILL_SLOPE 11.2, FFLUC_R_SQUARED 0.325, read-out: LUCIFERASE INFECTION ASSAY - IC50): > 9.53 µM |
| C=CCc1ccccc1OCCn1c(C2CC(=O)N(Cc3ccc(F)cc3)C2)nc2ccccc21 (centres undefined) | > 10 | IC50 (FFLUC_HILL_SLOPE 11.3, FFLUC_R_SQUARED 0.11, read-out: LUCIFERASE INFECTION ASSAY - IC50): > 10 µM |
| CCN(CC)CCn1c(NC(=O)c2cc3c(C)nn(Cc4ccccc4)c3s2)nc2ccccc21 | 5.29 | IC50 (FFLUC_HILL_SLOPE 11, FFLUC_R_SQUARED 0.377, PBLUC_HILL_SLOPE 1.67, PBLUC_R_SQUARED 0.43, read-out: LUCIFERASE INFECTION ASSAY - IC50): 1.42 µM |
| COC(=O)c1cc(C(=O)OC)cc(-n2c(C)cc(C(=O)Cn3ncc(Cl)c(Cl)c3=O)c2C)c1 | 4.48 | IC50 (FFLUC_HILL_SLOPE 11.1, FFLUC_R_SQUARED 0.501, HEPG2TOX_HILL_SLOPE 4.27, HEPG2TOX_R_SQUARED 0.789, PBLUC_HILL_SLOPE 11.5, PBLUC_R_SQUARED 0.682, read-out: LUCIFERASE INFECTION ASSAY - IC50): 3.7 µM |
| Cc1ccc(S(=O)(=O)c2ccc(C(F)(F)F)cc2[N+](=O)[O-])cc1 | > 9.56 | IC50 (FFLUC_HILL_SLOPE 11, FFLUC_R_SQUARED 0.463, read-out: LUCIFERASE INFECTION ASSAY - IC50): > 9.56 µM |
| O=C(Nc1nc2ccccn2c1C(=O)NC1CCCC1)c1ccc(C(F)(F)F)cc1 | 0.325 | IC50 (FFLUC_HILL_SLOPE 11.1, FFLUC_R_SQUARED 0.453, HEPG2TOX_HILL_SLOPE 0.561, HEPG2TOX_R_SQUARED 0.841, PBLUC_HILL_SLOPE 12.2, PBLUC_R_SQUARED 0.531, read-out: LUCIFERASE INFECTION ASSAY - IC50): 0.271 µM |
| Cc1ccccc1NC(=O)c1cc2ccccc2c(CN2CCC3(CC2)OCCO3)c1O | 1.28 | IC50 (FFLUC_HILL_SLOPE 10.9, FFLUC_R_SQUARED 0.858, HEPG2TOX_HILL_SLOPE 2.82, HEPG2TOX_R_SQUARED 0.87, PBLUC_HILL_SLOPE 1.78, PBLUC_R_SQUARED 0.84, read-out: LUCIFERASE INFECTION ASSAY - IC50): 0.373 µM |
| COc1ccc(N(C(C)=O)c2nc(/C=C/C(=O)c3ccc(F)cc3)cs2)cc1 | > 10 | IC50 (FFLUC_HILL_SLOPE 11.2, FFLUC_R_SQUARED 0.397, read-out: LUCIFERASE INFECTION ASSAY - IC50): > 10 µM |
| O=[N+]([O-])c1ccsc1Sc1ccc(C(F)(F)F)cn1 | > 10.8 | IC50 (FFLUC_HILL_SLOPE 11.2, FFLUC_R_SQUARED 0.0124, HEPG2TOX_HILL_SLOPE 0.715, HEPG2TOX_R_SQUARED 0.731, read-out: LUCIFERASE INFECTION ASSAY - IC50): > 10.8 µM |
| CN(C(=O)COc1cc2ccccc2cc1C(=O)NCc1ccccc1)C1CCCCC1 | > 10 | IC50 (FFLUC_HILL_SLOPE 11, FFLUC_R_SQUARED 0.0654, read-out: LUCIFERASE INFECTION ASSAY - IC50): > 10 µM |
| CCN(CC)S(=O)(=O)c1ccc(Cl)c(NC(=O)CSc2nnc(-c3ccc(F)cc3)c3ccccc23)c1 | > 10 | IC50 (FFLUC_HILL_SLOPE 11.3, FFLUC_R_SQUARED 0.167, read-out: LUCIFERASE INFECTION ASSAY - IC50): > 10 µM |
| CCOC(=O)C1CCN(c2cc(C(F)(F)F)nc3c(F)cccc23)CC1 | > 8.91 | IC50 (FFLUC_HILL_SLOPE 11, FFLUC_R_SQUARED 0.219, read-out: LUCIFERASE INFECTION ASSAY - IC50): > 8.91 µM |
| Clc1cc2c(c3ncccc13)OCN(C1CCCC1)C2 | 2.79 | IC50 (FFLUC_HILL_SLOPE 11.1, FFLUC_R_SQUARED 0.223, HEPG2TOX_HILL_SLOPE 2.6, HEPG2TOX_R_SQUARED 0.787, PBLUC_HILL_SLOPE 4.7, PBLUC_R_SQUARED 0.818, read-out: LUCIFERASE INFECTION ASSAY - IC50): 1.75 µM |
| O=C(NC(c1ccccc1)c1ccccc1)[C@@H]1C[C@@H](OCc2ccccc2)CN1CC1CCCCC1 | > 6.84 | IC50 (FFLUC_HILL_SLOPE 11.2, FFLUC_R_SQUARED 0.284, read-out: LUCIFERASE INFECTION ASSAY - IC50): > 6.84 µM |
| CCOc1cc(/C=C/C(=O)N(c2ccccc2)c2nc(-c3ccc(F)cc3)cs2)cc(Cl)c1OC | > 10 | IC50 (FFLUC_HILL_SLOPE 10.9, FFLUC_R_SQUARED 0.679, read-out: LUCIFERASE INFECTION ASSAY - IC50): > 10 µM |
| Cc1onc(-c2c(Cl)cccc2Cl)c1NC(=O)Nc1ccc(Oc2ccc(C(C)(C)C)cc2)nc1 | > 6.45 | IC50 (FFLUC_HILL_SLOPE 11.2, FFLUC_R_SQUARED 0.206, PBLUC_HILL_SLOPE 0.638, PBLUC_R_SQUARED 0.443, read-out: LUCIFERASE INFECTION ASSAY - IC50): 2.71 µM |

| Structure (SMILES) | IC90 [µM] | also measured |
| --- | --- | --- |
| N#CC1C(=N)Oc2c3c(c4ccccc4c2C1c1ccc(F)cc1)C(c1ccc(F)cc1)C(C#N)C(=N)O3 (centres undefined) | > 6.54 | IC50 (FFLUC_HILL_SLOPE 11.1, FFLUC_R_SQUARED 0.748, PBLUC_HILL_SLOPE 2.09, PBLUC_R_SQUARED 0.0277, read-out: LUCIFERASE INFECTION ASSAY - IC50): 4.45 µM |
| CNc1cc(Nc2cc(C)c(Oc3cccc(C(C)(C)C)c3)cc2C)ncn1 | 8.49 | IC50 (FFLUC_HILL_SLOPE 11.3, FFLUC_R_SQUARED 0.0353, HEPG2TOX_HILL_SLOPE 16.8, HEPG2TOX_R_SQUARED 0.912, PBLUC_HILL_SLOPE 9.72, PBLUC_R_SQUARED 0.605, read-out: LUCIFERASE INFECTION ASSAY - IC50): 6.77 µM |
| CC1CCc2nc(/C(C#N)=C/c3ccccc3OC(F)F)sc2C1 (centres undefined) | 3.92 | IC50 (FFLUC_HILL_SLOPE 11.1, FFLUC_R_SQUARED 0.825, PBLUC_HILL_SLOPE 3.87, PBLUC_R_SQUARED 0.911, read-out: LUCIFERASE INFECTION ASSAY - IC50): 2.22 µM |
| CC(NC(=O)COC(=O)CSc1ccc(Br)c2cccc(Cl)c12)c1ccccc1 (centres undefined) | > 10 | IC50 (FFLUC_HILL_SLOPE 11.2, FFLUC_R_SQUARED 0.0748, PBLUC_HILL_SLOPE 1.42, PBLUC_R_SQUARED 0.0165, read-out: LUCIFERASE INFECTION ASSAY - IC50): > 10 µM |
| CCCNC(=O)c1c(NC(=O)c2ccc(C(F)(F)F)cc2)nc2ccc(C)cn12 | 1.11 | IC50 (FFLUC_HILL_SLOPE 11.2, FFLUC_R_SQUARED 0.698, HEPG2TOX_HILL_SLOPE 0.884, HEPG2TOX_R_SQUARED 0.902, PBLUC_HILL_SLOPE 2.26, PBLUC_R_SQUARED 0.742, read-out: LUCIFERASE INFECTION ASSAY - IC50): 0.419 µM |
| COC(=O)c1cc(N/N=C2\C=CC(=O)c3ncccc32)cc(C(=O)OC)c1 | 3.38 | IC50 (FFLUC_HILL_SLOPE 11, FFLUC_R_SQUARED 0.42, HEPG2TOX_HILL_SLOPE 0.866, HEPG2TOX_R_SQUARED 0.908, PBLUC_HILL_SLOPE 2.75, PBLUC_R_SQUARED 0.794, read-out: LUCIFERASE INFECTION ASSAY - IC50): 1.52 µM |
| O=C(c1cnc(N2CCCC2)s1)c1sc2cc(Cl)cc(Cl)c2c1Cl | > 10 | IC50 (FFLUC_HILL_SLOPE 11, FFLUC_R_SQUARED 0.0847, HEPG2TOX_HILL_SLOPE 2.22, HEPG2TOX_R_SQUARED 0.924, PBLUC_HILL_SLOPE 1.87, PBLUC_R_SQUARED 0.226, read-out: LUCIFERASE INFECTION ASSAY - IC50): 6.85 µM |
| O=C(/C=C/c1cccnc1)c1ccc(S(=O)(=O)NCc2ccccc2Cl)cc1 | 5.93 | IC50 (FFLUC_HILL_SLOPE 11, FFLUC_R_SQUARED 0.373, HEPG2TOX_HILL_SLOPE 8.76, HEPG2TOX_R_SQUARED 0.66, PBLUC_HILL_SLOPE 5.1, PBLUC_R_SQUARED 0.695, read-out: LUCIFERASE INFECTION ASSAY - IC50): 3.85 µM |
| CC(C)(C)c1ccc(C(=O)NCCOc2ccccc2Cl)cc1 | 0.863 | IC50 (FFLUC_HILL_SLOPE 11.3, FFLUC_R_SQUARED 0.0884, PBLUC_HILL_SLOPE 2.08, PBLUC_R_SQUARED 0.74, read-out: LUCIFERASE INFECTION ASSAY - IC50): 0.3 µM |
| CCCc1ccc(-c2nc(NC(=O)C3CCCN(c4ncccn4)C3)sc2C)cc1 (centres undefined) | > 10 | IC50 (FFLUC_HILL_SLOPE 11.3, FFLUC_R_SQUARED 0.0894, PBLUC_HILL_SLOPE 12.7, PBLUC_R_SQUARED 0.313, read-out: LUCIFERASE INFECTION ASSAY - IC50): 9.57 µM |
| Cc1ccc2cc(COC(=O)/C(=C/c3ccccc3)n3nnnc3C)c(Cl)nc2c1 | > 10 | IC50 [1]: > 10 µM |
| C=S(=O)(NC(=O)CSc1nc2ccccc2s1)c1ccc(Cl)cc1 (centres undefined) | > 8.31 | IC50 [1]: > 8.31 µM |
| O=C(CN(Cc1c(F)cccc1Cl)C1CC1)Nc1ccccc1Cl | > 10 | IC50 (FFLUC_HILL_SLOPE 11.2, FFLUC_R_SQUARED 0.995, read-out: LUCIFERASE INFECTION ASSAY - IC50): > 10 µM |
| Cc1nn(C)c2nc(-c3ccco3)cc(C(=O)Nc3ccnn3Cc3ccc(Cl)cc3Cl)c12 | > 10 | IC50 (FFLUC_HILL_SLOPE 11.1, FFLUC_R_SQUARED 0.205, read-out: LUCIFERASE INFECTION ASSAY - IC50): > 10 µM |
| CN(C)S(=O)(=O)c1cccc(NC(=S)N/N=C/c2cc3c(cc2[N+](=O)[O-])OCO3)c1 | > 10 | IC50 (FFLUC_HILL_SLOPE 11, FFLUC_R_SQUARED 0.0812, read-out: LUCIFERASE INFECTION ASSAY - IC50): > 10 µM |
| O=C(CCn1cnc([N+](=O)[O-])c1)Nc1nc(-c2ccccc2)c(-c2ccccc2)s1 | 7.85 | IC50 (FFLUC_HILL_SLOPE 11.3, FFLUC_R_SQUARED 0.217, PBLUC_HILL_SLOPE 4.55, PBLUC_R_SQUARED 0.65, read-out: LUCIFERASE INFECTION ASSAY - IC50): 4.84 µM |
